From patent US9179674B2, “Macrocyclic picolinamide compounds with fungicidal activity” (DOW AGROSCIENCES LLC, priority 2013, dated 2015)
Where two headings read alike, the source gives them in different places. Values belong to the molecule of their own block, whether it stands above or below them.

How the values were obtained:
[1] = system: Mycosphaerella graminicola; Anamorph: Septoria tritici; experiment: Leaf Blotch of Wheat fungicidal activity (SEPTTR); type: in vivo; conditions: Zymoseptoria tritici; for pest or weed control at 100 ppm: rate 100 ppm; for pest or weed control at 121.5 g/ha: rate 121.5 g/H
Procedure, shortened: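 Acetone solutions diluted with nine volumes of water containing 110 ppm Triton X-100, sprayed to run-off on first-leaf wheat seedlings (Yuma), inoculated with S. tritici before or after treatment. Plants held in dew chambers, then in a 20 °C greenhouse. Disease severity (0–100%) scored when untreated plants fully symptomatic; % control relative to untreated.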

Puccinia triticina = experiment: Wheat Brown Rust fungicidal activity (PUCCRT); type: in vivo; conditions: Puccinia triticina; for pest or weed control at 100 ppm: rate 100 ppm; for pest or weed control at 121.5 g/ha: rate 121.5 g/H
Procedure, shortened: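 Yuma wheat seedlings at first-leaf stage sprayed to run-off (acetone solution in water with 110 ppm Triton X-100) or track-sprayed as EC with 0.1% Trycol 5941; inoculated with P. triticina spores before or after treatment. Overnight dark dew at 22° C., then greenhouse 24° C.; disease severity 0–100% gives percent control vs untreated.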

[2] = 24 h, 1 Day Protectant, read-out: Disease control SEPTTR 1DP
[3] = 72 h, 3 Day Curative, read-out: Disease control SEPTTR 3DC
[4] = 24 h, 1 Day Protectant, read-out: Disease control PUCCRT 1DP
[5] = 72 h, 3 Day Curative, read-out: Disease control PUCCRT 3DC

Compound: CCCCCO[C@@H]1[C@@H](CC2CCCC2)COC[C@H](NC(=O)c2nccc(OC)c2OC(C)=O)C(=O)O[C@H]1C [Compound F79]
- pest or weed control at 100 ppm [1, 2]: 80 to 100%
- pest or weed control at 121.5 g/ha [1, 2]: 80 to 100%
- pest or weed control at 100 ppm [1, 3]: 80 to 100%
- pest or weed control at 121.5 g/ha [1, 3]: 80 to 100%
- pest or weed control at 100 ppm (Puccinia triticina; [4]): 80 to 100%
- pest or weed control at 121.5 g/ha (Puccinia triticina; [4]): 80 to 100%
- pest or weed control at 100 ppm (Puccinia triticina; [5]): 80 to 100%
- pest or weed control at 121.5 g/ha (Puccinia triticina; [5]): 0 to 80%
- melting point: 46 to 51 °C

Compound: COc1ccnc(C(=O)N[C@H]2COC[C@H](CCc3ccccc3)[C@@H](OC3CCCC3)[C@H](C)OC2=O)c1OCOC(C)=O [Compound F81]
- pest or weed control at 100 ppm [1, 2]: 80 to 100%
- pest or weed control at 100 ppm [1, 3]: 80 to 100%
- pest or weed control at 100 ppm (Puccinia triticina; [4]): 80 to 100%
- pest or weed control at 100 ppm (Puccinia triticina; [5]): 80 to 100%
- melting point: 45 to 50 °C

Compound: COc1ccnc(C(=O)N[C@H]2COC[C@H](Cc3cccc4ccccc34)[C@@H](OCCCC(F)(F)F)[C@H](C)OC2=O)c1OCOC(C)=O [Compound F84]
- pest or weed control at 100 ppm [1, 2]: 80 to 100%
- pest or weed control at 100 ppm (Puccinia triticina; [4]): 80 to 100%
- pest or weed control at 100 ppm (Puccinia triticina; [5]): 80 to 100%
- melting point: 61 to 68 °C

Compound: COc1ccnc(C(=O)N[C@H]2COC[C@H](Cc3cccc4ccccc34)[C@@H](Oc3ccc(C)cc3)[C@H](C)OC2=O)c1OCOC(C)=O [Compound F85]
- pest or weed control at 100 ppm [1, 2]: 80 to 100%
- pest or weed control at 100 ppm [1, 3]: 0 to 80%
- pest or weed control at 100 ppm (Puccinia triticina; [4]): 80 to 100%
- pest or weed control at 100 ppm (Puccinia triticina; [5]): 0 to 80%
- melting point: 83 to 88 °C

Compound: COc1ccnc(C(=O)N[C@H]2COC[C@H](Cc3ccc(Cl)cc3Cl)[C@@H](OCC(C)C)[C@H](C)OC2=O)c1OCOC(C)=O [Compound F111]
- pest or weed control at 100 ppm [1, 2]: 80 to 100%
- pest or weed control at 100 ppm [1, 3]: 80 to 100%
- pest or weed control at 100 ppm (Puccinia triticina; [4]): 80 to 100%
- pest or weed control at 100 ppm (Puccinia triticina; [5]): 80 to 100%
- melting point: 49 to 53 °C

Compound: COc1ccnc(C(=O)N[C@H]2COC[C@H](Cc3ccc(Cl)cc3Cl)[C@@H](OC(=O)C(C)C)[C@H](C)OC2=O)c1OCOC(=O)C(C)C [Compound F119]
- pest or weed control at 100 ppm [1, 2]: 80 to 100%
- pest or weed control at 100 ppm [1, 3]: 80 to 100%
- pest or weed control at 100 ppm (Puccinia triticina; [4]): 80 to 100%
- pest or weed control at 100 ppm (Puccinia triticina; [5]): 80 to 100%
- melting point: 57 to 60 °C

Second part, led by results:

- melting point: 39 to 43 °C
Compound: CCCCCO[C@@H]1[C@@H](Cc2ccc(C)cc2)COC[C@H](NC(=O)c2nccc(OC)c2OCOC(C)=O)C(=O)O[C@H]1C [Compound F88]
- pest or weed control at 100 ppm [1, 2]: 80 to 100%
- pest or weed control at 100 ppm [1, 3]: 80 to 100%
- pest or weed control at 100 ppm (Puccinia triticina; [4]): 80 to 100%
- pest or weed control at 100 ppm (Puccinia triticina; [5]): 80 to 100%

- melting point: 43 to 47 °C
Compound: COc1ccnc(C(=O)N[C@H]2COC[C@H](Cc3ccc(C)cc3)[C@@H](OC(=O)C(C)C)[C@H](C)OC2=O)c1OCOC(C)=O [Compound F89]
- pest or weed control at 100 ppm [1, 2]: 80 to 100%
- pest or weed control at 100 ppm [1, 3]: 80 to 100%
- pest or weed control at 100 ppm (Puccinia triticina; [4]): 80 to 100%
- pest or weed control at 100 ppm (Puccinia triticina; [5]): 80 to 100%

- melting point: 59 to 64 °C
Compound: COc1ccnc(C(=O)N[C@H]2COC[C@H](Cc3ccc(F)cc3)[C@@H](OC(=O)C3CC3)[C@H](C)OC2=O)c1OCOC(C)=O [Compound F90]
- pest or weed control at 100 ppm [1, 2]: 80 to 100%
- pest or weed control at 100 ppm [1, 3]: 80 to 100%
- pest or weed control at 100 ppm (Puccinia triticina; [4]): 80 to 100%
- pest or weed control at 100 ppm (Puccinia triticina; [5]): 80 to 100%

- melting point: 52 to 56 °C
Compound: COc1ccnc(C(=O)N[C@H]2COC[C@H](Cc3ccc(F)cc3)[C@@H](OC(=O)C(C)C)[C@H](C)OC2=O)c1OCOC(C)=O [Compound F91]
- pest or weed control at 100 ppm [1, 2]: 80 to 100%
- pest or weed control at 100 ppm [1, 3]: 80 to 100%
- pest or weed control at 100 ppm (Puccinia triticina; [4]): 80 to 100%
- pest or weed control at 100 ppm (Puccinia triticina; [5]): 80 to 100%

- melting point: 53 to 57 °C
Compound: CCCCCO[C@@H]1[C@@H](Cc2ccc(Cl)cc2Cl)COC[C@H](NC(=O)c2nccc(OC)c2OCOC(C)=O)C(=O)O[C@H]1C [Compound F112]
- pest or weed control at 121.5 g/ha [1, 2]: 80 to 100%
- pest or weed control at 121.5 g/ha [1, 3]: 80 to 100%
- pest or weed control at 121.5 g/ha (Puccinia triticina; [4]): 80 to 100%
- pest or weed control at 121.5 g/ha (Puccinia triticina; [5]): 0 to 80%
